Laboratory results published in US8735375B2, “Therapeutic compositions” (Leo Laboratories Limited, priority 2005, dated 2014).

Key:
[1] = Preliminary in vitro diffusion study (Franz cell); format: in vitro ADME; conditions: human stratum corneum, at detectable levels
Description: Once the stability of I3A in the excipients and penetration enhancers had been established, a preliminary in vitro diffusion experiment could be conducted to determine the permeation of stratum corneum by I3A from some simple formulations. The Franz diffusion cell is designed to mimic the physiological and anatomical conditions of skin in situ. It is an air/fluid phase static cell, which comprises a donor compartment, receptor compartment and a side arm sampling port (see FIG. 1). Surgically excised skin is positioned between the two halves with the stratum corneum facing the donor compartment to allow for drug application.
An initial in vitro diffusion experiment using a simple formulation of I3A in miglyol was performed. […] This formulation was used in later diffusion cell experiments as a negative control and also served to confirm the integrity of the stratum corneum, as if there is no diffusion of drug from this formulation, it can be assumed that the stratum corneum remains intact.
A formulation of I3A was prepared in phosphate buffer (pH 4.5) with β-cyclodextrins (Captisol®) added with a view to increasing the solubility and stability of I3A, and the flux of the drug. A second formulation in DMSO, a known penetration enhancer, was also prepared for comparative purposes, as well as a formulation in miglyol, which served as a negative control. […]

[2] = Stability of I3A at various pH's (buffers); format: physicochemical; conditions: room temperature
Experimental: The stability of I3A was investigated at pH 4.5 in two buffers i.e. monopotassium phosphate/disodium phosphate and acetic acid/ammonium acetate for 24 h at room temperature.

Stability of I3A in DMSO = format: physicochemical; conditions: 10 days
Experimental: I3A was investigated for stability in DMSO at room temperature and at 37° C. over a 10 day time period. A control sample of I3A in acetonitrile was kept under the same conditions as the test sample. The samples were analysed by HPLC at the start of the experiment (Day 0), after 48 hours (Day 2) and again after 10 days.
The chromatographic conditions employed were as follows: […]

[3] = Stability of I3A 'b' in isopropanol gel (pH 6.5); format: physicochemical; conditions: 0.02% (w/w) I3A 'b' in isopropanol gel pH 6.5; 2-8° C., RTP and 40° C.
Experimental: The stability of I3A ‘b’ in an isopropanol gel preparation (pH 6.5) was investigated. The protocol was as follows:
The Carbopol® was dispersed in the water and glycerin and dissolved by heating to 40° C. in a water bath. The propyl alcohol was then added to this solution. The cyclomethicone was dissolved in the isopropyl alcohol and this second solution was mixed well with the Carbopol® solution, and then water was added, with stirring, to 100%. The pH of the gel was brought to 6.5 with the dropwise addition of ethanolamine. The isopropanol gel was stored at 2-8° C. until use.
To investigate the stability of I3A ‘b’ in isopropanol gel (pH 6.5), a 0.02% (w/w) I3A ‘b’/Visopropanol gel formulation was prepared and divided into three samples for storage at 2-8° C., RTP and 40° C. At regular time points the samples were analysed in duplicate for the stability of I3A ‘b’ in terms of the formation of isoform ‘a’, with the results given in FIG. 2.

[4] = Preliminary stability of I3A in fractionated coconut oil; format: physicochemical
Experimental: Approximately 10 mg of […] was accurately weighed into a 28 ml glass vial and added to approximately 200 mg of benzyl alcohol (exact weight noted), which had previously been filtered through a 0.22 μm MILLEX-GV filter. This mixture was periodically vortexed for approximately 2 h until the […] had dissolved in the benzyl alcohol. […] Aliquots of each formulation (placebo or active) were dispensed into 2 ml screw cap amber glass vials (borosilicate glass), sealed and stored at two storage conditions namely 2-8° C. and 25±2° C. […]

[5] = Dilution of I3A with normal saline (isoform conversion); format: physicochemical
Description: Oils may also be used in the present invention. The use of an emulsion based intralesional formulation has been reported for the treatment of psoriasis (Ho et al., 1990). Prior to administration, a vehicle, such as polyoxyethylated castor oil, is normally diluted with saline to form the emulsion. […] This conversion may be minimised if the administration time of the formulation is short.

SMILES: C/C=C(/C)C(=O)O[C@H]1C(C)=C[C@]23C(=O)[C@H](C=C(CO)[C@@H](O)[C@]12O)[C@H]1[C@@H](C[C@H]3C)C1(C)C [Formulation I3A, ingenol-3-angelate]
- diffusion of I3A across the stratum corneum [1]: diffuses across the stratum corneum
- stability (predominance of isoform 'b') ([2]; pH 4.5, monopotassium phosphate/disodium phosphate and acetic acid/ammonium acetate buffers, 24 h): stable
- stability ([2]; pH 5.5, 6.5 and 7.0, 14 days): decrease with an increase in pH
- stability (Stability of I3A in DMSO; 37° C.): stable
- stability (Stability of I3A in DMSO; room temperature): stable
- stability in terms of the formation of isoform 'a' [3]: rearranges to isoform ‘a’ and subsequently isoform ‘c’
- % I3A ‘a’ (isoform ‘a’ as a percentage of isoform ‘a’ and I3A ‘b’) ([4]; 0.1% w/w I3A in fractionated coconut oil/2% benzyl alcohol, Time 0): 1.90%
- % I3A ‘a’ ([4]; Fresh sample I3A in Acetonitrile at time 43 days): 2.14%
- % I3A ‘a’ (isoform ‘a’ as a percentage of isoform ‘a’ and I3A ‘b’) ([4]; Fresh sample I3A in Acetonitrile at time zero): 2.50%
- % I3A ‘a’ ([4]; I3A in fractionated coconut oil formulation, Time 5 days (2-8° C.)): 1.86%
- % I3A ‘a’ ([4]; I3A in fractionated coconut oil formulation, Time 5 days (25° C.)): 1.97%
- % I3A ‘a’ ([4]; I3A in fractionated coconut oil formulation, Time 20 days (2-8° C.)): 1.94%
- % I3A ‘a’ ([4]; I3A in fractionated coconut oil formulation, Time 20 days (25° C.)): 1.93%
- % I3A ‘a’ ([4]; I3A in fractionated coconut oil formulation, Time 28 days (2-8° C.)): 1.93%
- % I3A ‘a’ ([4]; I3A in fractionated coconut oil formulation, Time 28 days (25° C.)): 1.94%
- % I3A ‘a’ ([4]; I3A in fractionated coconut oil formulation, Time 43 days (2-8° C.)): 1.95%
- % I3A ‘a’ ([4]; I3A in fractionated coconut oil formulation, Time 43 days (25° C.)): 1.91%
- change in percentage of isoform ‘a’ during storage ([4]; I3A in fractionated coconut oil, 2-8 and 25° C., 43 days): no increase in the percentage of isoform ‘a’
- conversion of isoform 'b' to 'a' [5]: increases the conversion of isoform ‘b’ to ‘a’
